In ChEMBL document CHEMBL5131409, “Synthesis and characterization of chiral 6-azaspiro[2.5]octanes as potent and selective antagonists of the M4 muscarinic acetylcholine receptor” (Bioorg Med Chem Lett, 2022) one finds IC50, Tmax and Cmax data, which are given here for one compound.

Series [1] concerns the target T1, Cytochrome P450 1A2 (Homo sapiens, UniProt P05177).
T1 sequence (P05177 whole entry): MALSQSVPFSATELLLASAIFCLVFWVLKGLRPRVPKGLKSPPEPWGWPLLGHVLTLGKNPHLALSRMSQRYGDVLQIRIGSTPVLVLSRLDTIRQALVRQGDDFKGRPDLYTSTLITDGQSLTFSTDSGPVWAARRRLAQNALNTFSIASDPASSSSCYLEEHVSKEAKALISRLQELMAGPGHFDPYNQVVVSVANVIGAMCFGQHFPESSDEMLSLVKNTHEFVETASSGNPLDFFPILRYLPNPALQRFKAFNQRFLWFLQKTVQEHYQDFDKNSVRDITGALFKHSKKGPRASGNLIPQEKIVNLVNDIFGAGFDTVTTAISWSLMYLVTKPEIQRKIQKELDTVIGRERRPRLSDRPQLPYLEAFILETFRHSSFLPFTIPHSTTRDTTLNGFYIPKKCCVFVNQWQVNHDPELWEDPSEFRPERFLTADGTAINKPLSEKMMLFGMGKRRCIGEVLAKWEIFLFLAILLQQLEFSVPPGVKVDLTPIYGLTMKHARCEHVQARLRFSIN
The series can be described thus: Inhibition of CYP1A2 in human liver microsomes using cocktail of isoform-specific probe substrate. Type of series: ADME, Microsome.

Series [2] in a line: Tmax in rat plasma at 3 mg/kg, ip. The class given is ADME, organism-based.
The nature of series [3]: Cmax in rat brain at 3 mg/kg, ip. Type of series: ADME, organism-based. Details: dose 3 mg/kg, route ip.

Take `CC(=O)Nc1ccc(-c2ccc(NC[C@@H]3CC34CCN(CC3CCOCC3)CC4)nn2)cc1`: the IC50 in series [1] is over 30 µM. Besides, the Tmax in series [2] amounted to 15 min. This compound displayed a Cmax in series [3] of 477 ng/g.
